ChEMBL document CHEMBL3991601, “The target landscape of clinical kinase drugs” (Science, 2017)
Activity calls are given as the source filed them. Cut-off read from the data, not from the text of the source, for most assays here: actives have a measured Kd and inactives only a lower limit.

Tests used:
[1] = biological target: Serine/threonine-protein kinase/endoribonuclease IRE1 (Homo sapiens, UniProt O75460)
[2] = biological target: Fibroblast growth factor receptor 1 (Homo sapiens, UniProt P11362)
Chain of Fibroblast growth factor receptor 1 (P11362 whole entry, the tested form may be a part): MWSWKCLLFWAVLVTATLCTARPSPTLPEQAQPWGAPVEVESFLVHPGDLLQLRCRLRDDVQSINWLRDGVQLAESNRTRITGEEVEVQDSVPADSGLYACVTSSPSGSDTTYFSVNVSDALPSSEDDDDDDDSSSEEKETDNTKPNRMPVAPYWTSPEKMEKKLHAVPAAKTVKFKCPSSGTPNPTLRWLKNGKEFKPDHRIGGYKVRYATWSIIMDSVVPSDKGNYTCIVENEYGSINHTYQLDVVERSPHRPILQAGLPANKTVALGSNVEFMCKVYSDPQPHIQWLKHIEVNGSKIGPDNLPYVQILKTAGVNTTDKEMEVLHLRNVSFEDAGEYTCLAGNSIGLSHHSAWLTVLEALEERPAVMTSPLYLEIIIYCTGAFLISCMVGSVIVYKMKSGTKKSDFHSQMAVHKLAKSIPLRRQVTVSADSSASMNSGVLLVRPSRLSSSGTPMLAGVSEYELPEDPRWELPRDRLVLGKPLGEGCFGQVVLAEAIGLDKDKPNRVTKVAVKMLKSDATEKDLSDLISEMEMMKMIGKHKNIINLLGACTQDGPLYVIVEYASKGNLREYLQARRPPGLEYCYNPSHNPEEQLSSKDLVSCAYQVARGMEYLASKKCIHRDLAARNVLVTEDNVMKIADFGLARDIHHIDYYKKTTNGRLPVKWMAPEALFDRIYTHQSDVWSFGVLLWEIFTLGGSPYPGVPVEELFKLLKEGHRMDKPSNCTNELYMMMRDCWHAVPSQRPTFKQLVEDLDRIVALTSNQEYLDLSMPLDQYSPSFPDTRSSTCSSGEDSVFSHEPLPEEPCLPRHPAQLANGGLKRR

LIM domain kinase 2 = LIM domain kinase 2 (Homo sapiens, UniProt P53671)
Chain of LIM domain kinase 2 (P53671 whole entry, the tested form may be a part): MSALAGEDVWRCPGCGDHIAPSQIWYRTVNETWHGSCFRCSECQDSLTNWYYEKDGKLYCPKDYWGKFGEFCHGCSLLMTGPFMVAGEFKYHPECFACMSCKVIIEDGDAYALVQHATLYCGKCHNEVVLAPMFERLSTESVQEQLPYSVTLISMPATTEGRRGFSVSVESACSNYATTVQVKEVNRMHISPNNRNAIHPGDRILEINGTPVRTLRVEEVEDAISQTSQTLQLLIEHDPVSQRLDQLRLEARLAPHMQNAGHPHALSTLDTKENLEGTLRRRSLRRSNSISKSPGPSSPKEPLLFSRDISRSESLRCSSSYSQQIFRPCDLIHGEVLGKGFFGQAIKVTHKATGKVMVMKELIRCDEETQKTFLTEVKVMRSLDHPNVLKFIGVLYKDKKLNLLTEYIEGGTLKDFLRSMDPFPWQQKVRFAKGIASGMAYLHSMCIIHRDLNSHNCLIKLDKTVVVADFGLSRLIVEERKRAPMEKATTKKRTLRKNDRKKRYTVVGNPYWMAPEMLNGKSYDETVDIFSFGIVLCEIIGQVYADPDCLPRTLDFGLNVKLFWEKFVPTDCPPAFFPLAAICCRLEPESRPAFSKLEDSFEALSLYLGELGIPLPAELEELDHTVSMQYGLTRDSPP

[3] = biological target: Proto-oncogene tyrosine-protein kinase Src (Homo sapiens, UniProt P12931)
Chain of Proto-oncogene tyrosine-protein kinase Src (P12931 2-536 limits assumed): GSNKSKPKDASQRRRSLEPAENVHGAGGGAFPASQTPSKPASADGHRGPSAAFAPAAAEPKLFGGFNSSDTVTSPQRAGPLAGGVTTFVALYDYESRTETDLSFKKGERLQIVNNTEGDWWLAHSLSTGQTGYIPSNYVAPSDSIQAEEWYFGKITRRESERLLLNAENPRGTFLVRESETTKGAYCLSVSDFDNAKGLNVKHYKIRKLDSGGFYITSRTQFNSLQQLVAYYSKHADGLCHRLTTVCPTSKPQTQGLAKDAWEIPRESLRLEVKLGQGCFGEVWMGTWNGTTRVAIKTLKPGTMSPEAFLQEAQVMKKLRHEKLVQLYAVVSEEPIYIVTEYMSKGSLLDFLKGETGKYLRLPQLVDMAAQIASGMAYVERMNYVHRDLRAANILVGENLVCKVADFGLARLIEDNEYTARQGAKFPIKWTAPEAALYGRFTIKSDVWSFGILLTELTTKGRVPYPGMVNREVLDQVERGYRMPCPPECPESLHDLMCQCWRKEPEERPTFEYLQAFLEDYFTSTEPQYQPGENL

[4] = biological target: T1, Serine/threonine-protein kinase ULK3 (Homo sapiens, UniProt Q6PHR2)
T1 sequence (Q6PHR2 whole entry): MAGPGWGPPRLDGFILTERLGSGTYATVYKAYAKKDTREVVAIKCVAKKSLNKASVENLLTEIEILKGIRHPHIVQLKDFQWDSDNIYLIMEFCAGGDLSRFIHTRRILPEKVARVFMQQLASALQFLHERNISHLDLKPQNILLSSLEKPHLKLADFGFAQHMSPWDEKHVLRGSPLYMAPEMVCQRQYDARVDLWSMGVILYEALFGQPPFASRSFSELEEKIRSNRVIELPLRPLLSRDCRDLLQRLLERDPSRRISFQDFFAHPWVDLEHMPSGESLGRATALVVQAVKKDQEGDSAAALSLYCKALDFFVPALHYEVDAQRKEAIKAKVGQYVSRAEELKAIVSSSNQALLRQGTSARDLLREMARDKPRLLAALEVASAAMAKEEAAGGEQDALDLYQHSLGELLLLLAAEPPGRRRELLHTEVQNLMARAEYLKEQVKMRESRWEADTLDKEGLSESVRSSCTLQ

[5] = biological target: T2, Bone morphogenetic protein receptor type-2 (Homo sapiens, UniProt Q13873)
T2 sequence (Q13873 whole entry): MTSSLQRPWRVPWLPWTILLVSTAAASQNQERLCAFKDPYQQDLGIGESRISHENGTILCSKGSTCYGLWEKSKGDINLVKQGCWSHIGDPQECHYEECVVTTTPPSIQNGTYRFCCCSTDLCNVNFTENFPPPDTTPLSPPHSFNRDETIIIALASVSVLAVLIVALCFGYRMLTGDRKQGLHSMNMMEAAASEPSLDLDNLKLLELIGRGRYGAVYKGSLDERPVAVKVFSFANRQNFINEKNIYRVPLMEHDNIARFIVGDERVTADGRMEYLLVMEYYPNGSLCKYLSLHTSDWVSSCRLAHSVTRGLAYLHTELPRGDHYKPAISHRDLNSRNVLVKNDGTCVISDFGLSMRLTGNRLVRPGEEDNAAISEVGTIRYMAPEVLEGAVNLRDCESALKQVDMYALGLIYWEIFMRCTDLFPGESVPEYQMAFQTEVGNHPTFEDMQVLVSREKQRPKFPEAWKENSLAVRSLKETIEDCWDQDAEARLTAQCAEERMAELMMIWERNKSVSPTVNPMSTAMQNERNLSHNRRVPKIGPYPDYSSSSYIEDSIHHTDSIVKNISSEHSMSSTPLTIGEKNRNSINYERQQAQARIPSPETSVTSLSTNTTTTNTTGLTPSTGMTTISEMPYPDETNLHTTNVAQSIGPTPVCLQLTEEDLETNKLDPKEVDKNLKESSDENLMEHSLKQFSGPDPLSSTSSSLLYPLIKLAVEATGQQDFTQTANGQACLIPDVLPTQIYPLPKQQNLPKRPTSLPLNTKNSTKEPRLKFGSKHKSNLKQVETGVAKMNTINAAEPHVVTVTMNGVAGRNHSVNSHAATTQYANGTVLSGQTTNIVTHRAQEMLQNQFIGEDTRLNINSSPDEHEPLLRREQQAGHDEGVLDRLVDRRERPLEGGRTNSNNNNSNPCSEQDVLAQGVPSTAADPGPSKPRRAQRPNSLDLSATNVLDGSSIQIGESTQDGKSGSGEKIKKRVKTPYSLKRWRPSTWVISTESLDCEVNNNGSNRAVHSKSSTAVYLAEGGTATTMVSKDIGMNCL

[6] = biological target: Serine/threonine-protein kinase PAK 4 (Homo sapiens, UniProt O96013)
Chain of Serine/threonine-protein kinase PAK 4 (O96013 whole entry): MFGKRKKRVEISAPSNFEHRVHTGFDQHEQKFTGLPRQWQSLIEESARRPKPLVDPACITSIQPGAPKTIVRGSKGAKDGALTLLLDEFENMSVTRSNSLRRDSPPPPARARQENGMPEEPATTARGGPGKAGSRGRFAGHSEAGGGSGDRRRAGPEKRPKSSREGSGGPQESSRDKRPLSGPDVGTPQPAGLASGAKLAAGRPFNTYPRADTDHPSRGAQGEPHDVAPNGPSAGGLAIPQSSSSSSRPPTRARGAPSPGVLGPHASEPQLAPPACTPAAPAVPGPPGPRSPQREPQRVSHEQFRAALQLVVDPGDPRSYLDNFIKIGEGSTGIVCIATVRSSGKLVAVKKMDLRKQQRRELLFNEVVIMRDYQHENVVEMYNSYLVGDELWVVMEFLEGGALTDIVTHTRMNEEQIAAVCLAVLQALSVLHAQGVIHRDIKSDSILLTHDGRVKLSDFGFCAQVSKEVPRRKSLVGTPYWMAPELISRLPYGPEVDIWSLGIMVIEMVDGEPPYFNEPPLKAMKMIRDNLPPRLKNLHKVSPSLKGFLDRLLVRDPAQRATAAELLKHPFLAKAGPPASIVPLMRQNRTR

[7] = biological target: Chromodomain-helicase-DNA-binding protein 4 (Homo sapiens, UniProt Q14839)
Heme oxygenase 2 = biological target: T3, Heme oxygenase 2 (Homo sapiens, UniProt P30519)
T3 sequence (P30519 whole entry): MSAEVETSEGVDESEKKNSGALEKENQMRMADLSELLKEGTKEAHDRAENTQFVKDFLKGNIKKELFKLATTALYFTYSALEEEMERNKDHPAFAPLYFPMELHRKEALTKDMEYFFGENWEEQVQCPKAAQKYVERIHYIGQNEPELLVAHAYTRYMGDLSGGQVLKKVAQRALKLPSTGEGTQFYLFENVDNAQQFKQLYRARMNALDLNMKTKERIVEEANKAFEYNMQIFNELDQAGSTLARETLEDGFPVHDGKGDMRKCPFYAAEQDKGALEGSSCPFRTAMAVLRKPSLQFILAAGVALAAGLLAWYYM

[8] = biological target: T4, Serine/threonine-protein kinase A-Raf (Homo sapiens, UniProt P10398)
T4 sequence (P10398 whole entry): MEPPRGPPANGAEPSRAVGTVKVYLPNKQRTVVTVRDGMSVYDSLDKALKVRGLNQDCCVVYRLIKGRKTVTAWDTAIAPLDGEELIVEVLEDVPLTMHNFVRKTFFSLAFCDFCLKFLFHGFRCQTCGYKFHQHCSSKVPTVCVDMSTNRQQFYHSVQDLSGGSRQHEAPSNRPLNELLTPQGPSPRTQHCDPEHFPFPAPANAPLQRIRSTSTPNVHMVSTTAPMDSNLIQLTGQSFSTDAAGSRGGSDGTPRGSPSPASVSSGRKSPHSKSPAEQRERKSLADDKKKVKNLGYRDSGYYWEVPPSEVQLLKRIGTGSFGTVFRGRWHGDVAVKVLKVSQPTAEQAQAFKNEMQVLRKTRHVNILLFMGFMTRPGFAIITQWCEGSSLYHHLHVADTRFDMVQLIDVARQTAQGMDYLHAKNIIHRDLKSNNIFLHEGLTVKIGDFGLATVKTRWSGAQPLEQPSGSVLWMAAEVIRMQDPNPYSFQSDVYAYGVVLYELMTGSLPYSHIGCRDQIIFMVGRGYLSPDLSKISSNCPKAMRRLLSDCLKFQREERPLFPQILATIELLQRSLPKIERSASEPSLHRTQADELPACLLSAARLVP

Measured: Kd
Note: in the data inactive means no Kd found up to 30 µM.

Chain of Serine/threonine-protein kinase/endoribonuclease IRE1 (O75460 whole entry): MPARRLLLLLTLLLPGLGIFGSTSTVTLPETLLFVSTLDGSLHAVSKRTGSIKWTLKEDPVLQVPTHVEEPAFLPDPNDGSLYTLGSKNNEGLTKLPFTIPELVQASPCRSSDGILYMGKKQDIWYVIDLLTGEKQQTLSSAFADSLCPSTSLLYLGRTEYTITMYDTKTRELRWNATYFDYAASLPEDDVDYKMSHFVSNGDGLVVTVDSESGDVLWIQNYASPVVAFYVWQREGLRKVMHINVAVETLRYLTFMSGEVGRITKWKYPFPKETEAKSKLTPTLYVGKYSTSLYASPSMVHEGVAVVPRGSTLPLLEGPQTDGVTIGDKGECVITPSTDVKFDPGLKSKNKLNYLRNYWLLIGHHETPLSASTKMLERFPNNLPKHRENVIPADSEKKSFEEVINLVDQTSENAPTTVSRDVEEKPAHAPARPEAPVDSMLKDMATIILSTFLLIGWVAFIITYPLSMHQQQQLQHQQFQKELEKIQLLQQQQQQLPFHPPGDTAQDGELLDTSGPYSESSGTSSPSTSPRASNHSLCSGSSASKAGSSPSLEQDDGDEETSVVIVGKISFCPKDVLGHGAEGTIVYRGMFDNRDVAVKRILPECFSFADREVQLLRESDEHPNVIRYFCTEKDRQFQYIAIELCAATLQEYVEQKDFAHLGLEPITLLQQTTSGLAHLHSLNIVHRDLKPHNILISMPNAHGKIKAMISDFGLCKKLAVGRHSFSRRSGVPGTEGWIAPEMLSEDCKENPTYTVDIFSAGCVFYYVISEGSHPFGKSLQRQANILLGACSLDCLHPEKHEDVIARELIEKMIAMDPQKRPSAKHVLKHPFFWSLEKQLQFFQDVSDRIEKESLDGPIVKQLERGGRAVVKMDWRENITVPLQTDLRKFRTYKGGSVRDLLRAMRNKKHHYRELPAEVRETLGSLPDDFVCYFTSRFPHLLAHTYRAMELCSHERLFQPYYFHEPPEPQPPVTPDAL

CC(C)Nc1cc(-c2c[nH]c(C(=O)N[C@H](CO)c3cccc(Cl)c3)c2)c(Cl)cn1 [ULIXERTINIB]
inactive: [1] > 30 µM | [2] > 30 µM | LIM domain kinase 2 > 30 µM | [3] > 30 µM | [4] > 30 µM | [5] > 30 µM | [6] > 30 µM | [7] > 30 µM | Heme oxygenase 2 > 30 µM | [8] > 30 µM
